For experiment [1], the target named is Prothrombin (Homo sapiens, UniProt P00734). Description: Thrombin 1536 HTS Dose Response Confirmation. [Related pubchem assays: 1046 (Thrombin 1536 HTS; hits were confirmed in this assay)]. It counts as functional.
In experiment [2] the target is Mitogen-activated protein kinase 10 (Homo sapiens, UniProt P53779). As to the kind of experiment: Dose response biochemical screening assay for inhibitors of c-Jun N-Terminal Kinase 3 (JNK3). [Related pubchem assays: 746 ].
Experiment [3] can be described thus: cells. It counts as functional, cell-based.
Experiment [4] is described as follows: cells. It counts as functional, cell-based. The source holds these as a separate data set.
Experiment [5] in a line: CEM21 lymphoblast cell cytotoxicity, dose response, cytotoxicity control for viral fusion inhibitor project, CellTiter-Glo luminescence, cherry-picked (AID 652042).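 Note: potency for signal decrease meaning cytotoxicity.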 It counts as functional, cell-based. (ATP-based viability assays read luminescence as a measure of living cells.)
Experiment [6] can be described thus: inhibitors of HIV Env-driven cell fusion, dose response, cherry-pick (AID 652057). The experiment is classed as functional, cell-based.
Experiment [7] in a line: ZM109 Env clade C HIV-1 fusion inhibitors, dose response, HeLa effector, CEM target cells, luciferase, cherry-pick (AID 652058). The experiment is classed as functional, cell-based.
The nature of experiment [8]: inhibitors of clade B AD8 Env fusion, dose response, cell-based, cherry-pick (AID 652062).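 Note: luciferase signal from cell-cell fusion driven by HIV-1 clade B AD8 Env; potency is for inhibitors of fusion seen as a drop in luminescence.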 It counts as functional.
Experiment [9] is described as follows: off-target signal loss in HeLa-CEM21 co-culture – HeLa F-luc CTL cells, cherry-picked, counter-screen for HIV-1 Env fusion inhibitor project, dose response (AID 652040).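 Note: potency for signal decrease marking cytotoxic or nonspecific inhibition.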 It counts as functional, cell-based. A general note: The purpose of a counterscreen is to sort out artefacts and off-target activity.
Experiment [10] addresses T1, DNA repair protein RAD52 homolog (Homo sapiens, UniProt P43351).
T1 sequence (P43351 whole entry): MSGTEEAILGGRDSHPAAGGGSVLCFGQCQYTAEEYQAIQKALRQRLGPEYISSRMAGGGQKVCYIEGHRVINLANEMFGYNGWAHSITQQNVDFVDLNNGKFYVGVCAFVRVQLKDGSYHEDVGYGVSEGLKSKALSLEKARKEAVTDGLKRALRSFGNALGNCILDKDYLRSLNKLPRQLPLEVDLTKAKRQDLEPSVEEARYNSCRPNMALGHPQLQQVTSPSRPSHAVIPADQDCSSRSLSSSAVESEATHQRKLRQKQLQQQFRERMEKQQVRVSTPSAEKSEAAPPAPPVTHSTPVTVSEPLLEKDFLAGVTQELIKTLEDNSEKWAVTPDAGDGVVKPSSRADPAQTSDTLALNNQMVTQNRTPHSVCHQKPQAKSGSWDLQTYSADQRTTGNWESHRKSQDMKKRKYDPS
It counts as functional, biochemical.

The target of experiment [11] is T2, DNA repair and recombination protein RAD54-like (Homo sapiens, UniProt Q92698).
T2 sequence (Q92698 whole entry): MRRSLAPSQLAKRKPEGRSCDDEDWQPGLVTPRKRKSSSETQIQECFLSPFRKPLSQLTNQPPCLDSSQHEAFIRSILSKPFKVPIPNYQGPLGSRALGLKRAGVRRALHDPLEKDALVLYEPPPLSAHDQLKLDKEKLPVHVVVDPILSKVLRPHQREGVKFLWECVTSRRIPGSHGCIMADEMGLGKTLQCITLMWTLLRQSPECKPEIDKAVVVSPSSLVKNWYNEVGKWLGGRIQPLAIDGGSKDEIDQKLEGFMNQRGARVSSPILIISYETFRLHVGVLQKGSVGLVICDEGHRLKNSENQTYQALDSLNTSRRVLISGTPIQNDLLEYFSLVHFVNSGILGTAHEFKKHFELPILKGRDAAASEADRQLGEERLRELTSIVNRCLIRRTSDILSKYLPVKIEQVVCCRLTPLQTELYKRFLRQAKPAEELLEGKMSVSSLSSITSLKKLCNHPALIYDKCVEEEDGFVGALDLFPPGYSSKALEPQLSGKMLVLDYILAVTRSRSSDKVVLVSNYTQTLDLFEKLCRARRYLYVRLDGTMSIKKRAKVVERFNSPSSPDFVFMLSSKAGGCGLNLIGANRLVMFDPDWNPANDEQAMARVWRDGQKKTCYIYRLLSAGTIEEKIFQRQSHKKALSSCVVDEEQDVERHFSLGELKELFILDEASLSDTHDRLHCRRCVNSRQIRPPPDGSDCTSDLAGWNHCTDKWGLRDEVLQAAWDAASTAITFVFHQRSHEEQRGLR
As to the kind of experiment: inhibitors of human RAD54 branch migration, confirmation, biochemical, fluorescence, cherry-picked samples, dose series (AID 651657). The experiment is classed as functional.

Experiment [12] can be described thus: inhibitors of intracellular T. cruzi replication, confirmation, NIH3T3 host cells, beta-gal luminescence (AID 2044).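 Note: intracellular parasites grown in NIH/3T3 mouse fibroblasts as host cells; luminescent beta-galactosidase reporter signal from transgenic T. cruzi replicating inside host cells; inhibitors lower the luminescence signal.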 It counts as functional, cell-based.
Experiment [13] in a line: HEp-2 cell cytotoxicity, dose response, cytotoxicity control for RSV inhibitor project, HTS (AID 2410). The experiment is classed as functional. To be noted: human respiratory syncytial virus.
Experiment [14] can be described thus: inhibitors of SNCA 5'UTR-driven reporter translation, confirmation, H4 neuroglioma cells, luminescence (AID 1988). It counts as functional, cell-based.
The nature of experiment [15]: Luminescence Cell-Based Dose Response HTS to Identify Inhibitors of 5'UTR Stem-Loop Driven Prion Protein mRNA Translation in H4 Neuroglioblastoma Cells. [Related pubchem assays: 1827 (Project Summary), 1813 (Primary HTS)]. It counts as functional.
The nature of experiment [16]: inhibitors of firefly luciferase expression or activity, dose response, H4 neuroglioma cells, luminescence (AID 1990). The experiment is classed as functional, cell-based.
The nature of experiment [17]: cytotoxicity toward NIH3T3 fibroblasts, dose response, counter-screen, cell-based, ATP luminescence, mouse fibroblasts (AID 2010).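 Note: cells exposed to compound for about 90 hours before reading.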 It counts as functional.
Experiment [18] can be described thus: human group III sPLA2 inhibitors, dose response, biochemical, QFRET, IC50 (AID 743457).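 Note: green fluorescence rise as the enzyme cleaves BODIPY PC-A2 in liposomes; potency for inhibition of the enzyme.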
The nature of experiment [19]: Jurkat T cell cytotoxicity, dose response, cytotoxicity control for P. falciparum gametocyte viability project, luminescence (AID 1117277).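 Note: potency reflects loss of cellular ATP meaning fewer viable cells.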 It counts as functional, cell-based.
Experiment [20] is described as follows: P. falciparum late gametocyte killing, dose response, luminescence (AID 1117278).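 Note: gametocytes exposed to compound for 24 hours.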 It counts as functional, cell-based.
Experiment [21] addresses T3, Nuclear receptor subfamily 0 group B member 1 (Homo sapiens, UniProt P51843).
T3 sequence (P51843 whole entry): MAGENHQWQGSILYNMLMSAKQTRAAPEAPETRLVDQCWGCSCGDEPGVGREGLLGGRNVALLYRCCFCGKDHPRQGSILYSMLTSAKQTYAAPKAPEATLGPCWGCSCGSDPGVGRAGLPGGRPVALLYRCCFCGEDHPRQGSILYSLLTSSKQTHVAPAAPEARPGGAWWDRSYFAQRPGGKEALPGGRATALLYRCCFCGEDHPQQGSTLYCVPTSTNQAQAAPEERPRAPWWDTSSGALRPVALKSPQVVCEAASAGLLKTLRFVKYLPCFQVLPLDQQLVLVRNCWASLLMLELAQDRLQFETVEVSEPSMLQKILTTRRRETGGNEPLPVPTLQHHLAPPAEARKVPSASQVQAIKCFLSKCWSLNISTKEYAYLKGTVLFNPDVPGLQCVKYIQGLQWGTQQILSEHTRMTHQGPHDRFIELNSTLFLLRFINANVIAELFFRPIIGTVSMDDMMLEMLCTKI
It counts as functional, cell-based.

The target of experiment [22] is Paired box protein Pax-8 (Homo sapiens, UniProt Q06710). Description: inhibitors of PAX8-driven TPO luciferase reporter, dose response, RMG-I cells, cherry-pick (AID 687027).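 Note: luciferase reporter driven by Pax8 target thyroperoxidase promoter measured by SteadyGlo luminescence.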 It counts as functional, cell-based.
The nature of experiment [23]: cells. The experiment is classed as functional, cell-based. The source holds these as a separate data set.

Calls of active or inactive are those of the source. Bounds are passed on as bounds.

Sequence of Mitogen-activated protein kinase 10 (P53779 whole entry): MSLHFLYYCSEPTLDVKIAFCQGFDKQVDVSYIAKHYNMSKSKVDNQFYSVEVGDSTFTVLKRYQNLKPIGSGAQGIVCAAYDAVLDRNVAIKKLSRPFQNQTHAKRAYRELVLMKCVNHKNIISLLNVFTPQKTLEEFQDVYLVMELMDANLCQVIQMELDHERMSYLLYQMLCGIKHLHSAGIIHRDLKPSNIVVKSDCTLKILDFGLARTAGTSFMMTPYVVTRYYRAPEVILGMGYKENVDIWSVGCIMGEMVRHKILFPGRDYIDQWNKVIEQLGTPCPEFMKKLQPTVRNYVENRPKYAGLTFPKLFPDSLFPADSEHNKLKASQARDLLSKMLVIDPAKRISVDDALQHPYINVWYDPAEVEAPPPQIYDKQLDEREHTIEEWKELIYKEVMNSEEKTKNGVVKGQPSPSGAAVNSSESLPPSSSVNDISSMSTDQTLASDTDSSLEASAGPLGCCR
Sequence of Paired box protein Pax-8 (Q06710 whole entry): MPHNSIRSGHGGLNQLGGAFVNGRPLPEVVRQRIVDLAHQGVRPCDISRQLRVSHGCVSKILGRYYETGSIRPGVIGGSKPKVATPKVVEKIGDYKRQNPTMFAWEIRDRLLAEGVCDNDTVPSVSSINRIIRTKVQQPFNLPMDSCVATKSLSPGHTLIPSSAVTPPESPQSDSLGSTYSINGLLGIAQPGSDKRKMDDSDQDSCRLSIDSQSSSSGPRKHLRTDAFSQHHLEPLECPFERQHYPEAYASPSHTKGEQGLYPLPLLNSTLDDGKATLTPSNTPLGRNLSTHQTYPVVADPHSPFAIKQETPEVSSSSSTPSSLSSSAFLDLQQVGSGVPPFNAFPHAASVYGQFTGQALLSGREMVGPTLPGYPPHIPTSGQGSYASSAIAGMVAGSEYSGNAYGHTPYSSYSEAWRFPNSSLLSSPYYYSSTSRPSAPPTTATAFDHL

For orientation: IC50 means the concentration that gives 50% inhibition. As to `O=C(c1ccccc1)n1nc(-c2ccccc2)nc1NCc1ccco1`, the IC50 in experiment [1] is 1.72 µM (active).
As to `COc1ccc(COC(=O)C2=C(C)NC(=O)NC2c2ccc(O)c(OC)c2)cc1` (stereo not given), in [2], the IC50 is on record as 33.8 µM (not active).
Broadly, the EC50 is the concentration giving half of the maximal effect. `CCC(C)NCCOc1ccc(C)cc1[N+](=O)[O-]` (stereo not given): the EC50 in [3] and in [4] was > 350 µM (not active) each time. The IC50 in [1] is reported as > 50 µM (not active).
Broadly, the AC50 is the midpoint of the concentration-response curve, whichever way the signal moves. With `COc1ccc(CCC(C)NCc2ccc(Cl)c(Cl)c2)cc1` (stereo not given), the AC50 in experiment [5] is 59.6 µM (active); in experiment [6], 5.33 µM (active); in experiment [7], 7.63 µM (active); in [8], 6.23 µM (active); in experiment [9], 8.87 µM (active).
Regarding `CC1CCCC(C)N1CCCNC(=O)c1nn(C)c2c1CSc1ccccc1-2` (stereo not given), in experiment [9], the AC50 was > 70 µM (inactive).
As to `Cc1cccc(-c2nc(NCCCN(C)C)c3ccccc3n2)c1`, the AC50 in [10] is 9.69 µM (active); in experiment [11], 21.4 µM (active).
The term CC50 denotes the concentration giving 50% cytotoxicity. For `CCc1cccc2c1Sc1ccccc1CC2N1CCNCC1` (stereo not given), the EC50 in [12] is 3.99 µM (active); in experiment [14] it was > 120 µM (not active); in [15], > 120 µM (not active); in experiment [16], > 120 µM (not active); in experiment [17], 9.15 µM (active). Also, the CC50 in experiment [13] was 13 µM (active). Also, the AC50 in experiment [10] was 18 µM (active).
`FC(F)(F)c1cnc(NN=C(S)Nc2cccnc2)c(Cl)c1`: the IC50 in experiment [18] is > 122 µM (inactive).
Turning to `O=C(NC(Cc1ccc(O)cc1)C(=O)O)c1ccco1` (stereo not given), the IC50 in experiment [19] was > 83.3 µM (inactive); in [20], > 109 µM (inactive).
As to `COC(=O)c1ccccc1NC(=O)COC(=O)c1ccco1`, the IC50 in experiment [2] is on record as 56.7 µM (not active).
Turning to `CC(C)Oc1ccc(C2CC(=O)N(c3cccc(C(=O)O)c3)C2=O)cc1` (stereo not given), the figures for the IC50 in [19] and in [20] were > 83.3 µM (inactive) and > 109 µM (inactive), respectively.
`c1cc2cc(CNc3nc(NCC4CC4)nc4ccsc34)ccc2o1`: the concentration at half-maximal activity (AC50) was 35.9 µM (active) in experiment [5]; 4.73 µM (active) in experiment [6]; 33.1 µM (active) in experiment [7]; 22.5 µM (active) in experiment [8]; 8.05 µM (active) in [9].
For the molecule `CCOc1ccccc1NC(=O)COc1cccc(-n2cnnn2)c1`, the concentration for half-maximal inhibition (IC50) in [2] is reported as 69.2 µM (not active).
Consider `Oc1ccc2c3c1O[C@H]1c4[nH]c5c(c4CC4(O)C(C2)N(CC2CC2)CCC314)CC1(O)[C@H]2Cc3ccc(O)c4c3[C@@]1(CCN2CC1CC1)C5O4` (stereo not given in full), for which the AC50 in experiment [10] was 11.1 µM (active).
With `Cc1cc(C)c2sc(NNC(=O)C3COc4ccccc4O3)nc2c1` (stereo not given), in experiment [18], the IC50 was 26.2 µM (inactive).
With `CC(C)(C)C(=O)N1CCN(c2ccc(Cl)cc2[N+](=O)[O-])CC1`, the values for the IC50 in experiment [19] and in experiment [20] were > 83.3 µM (inactive) and > 109 µM (inactive), respectively.
As to `COc1c(C=O)c2c(c(OC)c1OC)-c1ccc(OC)c(=O)cc1C(NC(C)=O)CC2` (stereo not given), the IC50 in [21] and in experiment [23] was > 67.5 µM (inactive) each time. Also, in [22], the AC50 is < 0.26 µM (active).
As to `COc1ccc(-n2cc(-c3ccccc3)nc2S)cc1`, the IC50 in experiment [18] was > 122 µM (inactive).

The record behind these values is ChEMBL document CHEMBL1201862, “PubChem BioAssay data set” (2004).
